Data published in ChEMBL document CHEMBL1153976, “Synthesis and cytotoxicity of 2-cyano-28-hydroxy-lup-1-en-3-ones” (Bioorg Med Chem Lett, 2009).

Tests used:
Daoy = test: Antiproliferative activity against human DaOY cells after 72 hrs by MTS assay; assay type: cell-based
OVCAR-3 = test: Antiproliferative activity against human OVCAR-3 cells after 120 hrs by MTS assay; assay type: functional, cell-based; conditions: OVCAR-3, 120 h
MCF7 = test: Antiproliferative activity against human MCF7 cells after 72 hrs by MTS assay; assay type: functional, cell-based; conditions: MCF7, 72 h
A-375 = test: Antiproliferative activity against human A375 cells after 72 hrs by MTS assay; assay type: functional, cell-based; conditions: A-375, 72 h
HT-29 = test: Antiproliferative activity against human HT-29 cells after 72 hrs by MTS assay; assay type: functional, cell-based; conditions: HT-29, 72 h
SK-MEL-2 [1] = test: Antiproliferative activity against human SK-MEL-2 cells after 72 hrs by MTS assay; assay type: functional, cell-based; conditions: SK-MEL-2, 72 h
[2] = Antiproliferative activity against human LN229 cells after 72 hrs by MTS assay; assay type: functional, cell-based; conditions: LN-229, 72 h
SK-MEL-2 [3] = test: Induction of apoptosis in human SK-MEL-2 cells assessed as necrotic cells at 50 uM after 8 hrs by annexin V assay in presence of z-VAD; assay type: functional
SK-MEL-2 [4] = test: Induction of apoptosis in human SK-MEL-2 cells assessed as increase in caspase activation at 50 uM after 8 hrs by homogenous assay relative to control; assay type: functional
SK-MEL-2 [5] = test: Induction of apoptosis in human SK-MEL-2 cells assessed as apoptotic cells at 50 uM after 8 hrs by annexin V assay; assay type: functional
SK-MEL-2 [6] = test: Induction of apoptosis in human SK-MEL-2 cells assessed as apoptotic cells at 50 uM after 8 hrs by annexin V assay in presence of z-VAD; assay type: functional
SK-MEL-2 [7] = test: Induction of apoptosis in human SK-MEL-2 cells assessed as increase in caspase activation at 5 uM after 8 hrs by homogenous assay relative to control; assay type: functional
SK-MEL-2 [8] = test: Induction of apoptosis in human SK-MEL-2 cells assessed as necrotic cells at 50 uM after 8 hrs by annexin V assay; assay type: functional

SMILES | IC50 (Daoy) [µM] | IC50 (OVCAR-3) [µM] | IC50 (MCF7) [µM] | IC50 (A-375) [µM] | IC50 (HT-29) [µM] | IC50 (SK-MEL-2 [1]) [µM] | IC50 [2] [µM] | Activity (SK-MEL-2 [3]) [%] | fold change (FC) (SK-MEL-2 [4]) | Activity (SK-MEL-2 [5]) [%] | Activity (SK-MEL-2 [6]) [%] | fold change (FC) (SK-MEL-2 [7]) | Activity (SK-MEL-2 [8]) [%] | Activity (SK-MEL-2 [7]) [%]
C=C(C)[C@@H]1CC[C@]2(COC3CCCCO3)CC[C@]3(C)[C@H](CC[C@@H]4[C@@]5(C)CC(C#N)C(=O)C(C)(C)[C@@H]5CC[C@]43C)[C@@H]12 (some centres undefined) | 29 | > 75 | 25 | 38 | > 75 | 19 | > 75 | – | – | – | – | – | – | –
C=C(C)[C@@H]1CC[C@]2(COC3CCCCO3)CC[C@]3(C)[C@H](CC[C@@H]4[C@@]5(C)C=C(C#N)C(=O)C(C)(C)[C@@H]5CC[C@]43C)[C@@H]12 (some centres undefined) | 14 | > 75 | > 75 | 12 | > 75 | 23 | 21 | – | – | – | – | – | – | –
CC(C)[C@@H]1CC[C@]2(C(=O)O)CC[C@]3(C)[C@H](CC[C@@H]4[C@@]5(C)C=C(C#N)C(=O)C(C)(C)[C@@H]5CC[C@]43C)[C@@H]12 | 71 | 24 | 59 | 16 | 18 | 59 | 30 | – | – | – | – | – | – | –
C=C(C)[C@@H]1CC[C@]2(CO)CC[C@]3(C)[C@H](CC[C@@H]4[C@@]5(C)C=C(C#N)C(=O)C(C)(C)[C@@H]5CC[C@]43C)[C@@H]12 | 8 | 7 | 25 | 6 | 8 | 7 | 6 | 4 | 8 | 24 | 7 | 2 | 3 | –
C=C(C)[C@@H]1CC[C@]2(CO)CC[C@]3(C)[C@H](CC[C@@H]4[C@@]5(C)Cc6cnoc6C(C)(C)[C@@H]5CC[C@]43C)[C@@H]12 | 8 | 60 | 25 | – | 10 | 8 | > 75 | – | – | – | – | – | – | –
C=C(C)[C@@H]1CC[C@]2(C=O)CC[C@]3(C)[C@H](CC[C@@H]4[C@@]5(C)C=C(C#N)C(=O)C(C)(C)[C@@H]5CC[C@]43C)[C@@H]12 | 13 | > 75 | > 75 | 7 | 49 | 40 | > 75 | – | – | – | – | – | – | –
C=C(C)[C@@H]1CC[C@]2(CO)CC[C@]3(C)[C@H](CC[C@@H]4[C@@]5(C)CC(C#N)C(=O)C(C)(C)[C@@H]5CC[C@]43C)[C@@H]12 (some centres undefined) | 44 | > 75 | 68 | > 75 | 72 | 42 | > 75 | – | – | – | – | – | – | –
CC(C)[C@@H]1CC[C@]2(COC3CCCCO3)CC[C@]3(C)[C@H](CC[C@@H]4[C@@]5(C)CC(C#N)C(=O)C(C)(C)[C@@H]5CC[C@]43C)[C@@H]12 (some centres undefined) | 21 | – | > 75 | 48 | > 75 | 25 | 45 | – | – | – | – | – | – | –
CC(C)[C@@H]1CC[C@]2(CO)CC[C@]3(C)[C@H](CC[C@@H]4[C@@]5(C)C=C(C#N)C(=O)C(C)(C)[C@@H]5CC[C@]43C)[C@@H]12 | 9 | 8 | > 75 | 4 | 7 | 6 | – | – | – | – | – | – | – | –
CC(C)[C@@H]1CC[C@]2(CO)CC[C@]3(C)[C@H](CC[C@@H]4[C@@]5(C)Cc6cnoc6C(C)(C)[C@@H]5CC[C@]43C)[C@@H]12 | 7 | 75 | > 75 | 10 | 75 | 8 | > 75 | – | – | – | – | – | – | –
C=C(C)[C@@H]1CC[C@]2(C(=O)O)CC[C@]3(C)[C@H](CC[C@@H]4[C@@]5(C)C=C(C#N)C(=O)C(C)(C)[C@@H]5CC[C@]43C)[C@@H]12 | > 75 | > 75 | > 75 | > 75 | 38 | > 75 | 18 | – | – | – | – | – | – | –
C=C(C)[C@@H]1CC[C@]2(C(=O)O)CC[C@]3(C)[C@H](CC[C@@H]4[C@@]5(C)CC[C@H](O)C(C)(C)[C@@H]5CC[C@]43C)[C@@H]12 [BETULINIC ACID] | 31 | 59 | 50 | 51 | 37 | 33 | 61 | – | 2.6 | – | – | – | – | 70
